Source: patent US20110053900A1, “PROGESTERONE ANTAGONISTS SUCH AS CDB-4124 IN THE TREATMENT OF BREAST CANCER” (Repros Therapeutics inc, priority 2008, published 2011)

Columns and labels:
[1] = test system: rabbit uterus; experiment: Anti-McGinty and anti-Clauberg assays; assay type: in vivo; settings: average of anti-McGinty and anti-Clauberg results relative to CDB-2914 = 1.00
Procedure, shortened: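 Immature female rabbits were primed with 5 μg estradiol s.c. daily for 6 days. Anti-McGinty: compound given intraluminally into a ligated uterine segment, with progesterone 267 μg/day s.c. for 3 days. Anti-Clauberg: compound oral or s.c. with progesterone 160 μg/day for 5 days. Histological endometrial proliferation inhibition, averaged over both assays, is given relative to CDB-2914.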

[2] = Animal weight during the study; assay type: in vivo; settings: weighed weekly, 27-week study period
Description: The weights of the control animals were compared to those receiving hormonal treatment to better assess toxicity, especially that due to CDB-4124. The animals were weighed weekly during the 27-week study period.

[3] = Serum corticosterone by ELISA; assay type: in vivo, rat; settings: 20 or 10 mg/kg
Procedure: The animals were assessed three times for their levels of progesterone: initially, when they were about to go on treatment; a second time after 21 days of treatment; and finally after treatment at sacrifice which was 2-4 days after the last s.c. injection. All blood samples were taken by heart puncture; serum was prepared and held frozen at −40° C. The levels of the steroid hormones progesterone, cortisol, and corticosterone were determined by ELISA.
The concentrations of steroid hormones were determined three times during the study: before the beginning of treatments, after 21 days of treatment and finally after treatment at sacrifice which was 2-4 days after the last s.c. injection. All samples were taken by heart puncture. Serum was obtained and held frozen at −40° C. The levels of steroid hormones were determined by ELISA.
Corticosterone is the most abundant glucocorticoid in rats. The effects of the SPRMs on cortisol may be secondary to strong effects on corticosterone. […] The levels of corticosterone were 10-40 times higher than the levels of cortisol. However, almost no difference between groups with respect to mean corticosterone levels was observed. […] There was no statistical difference in levels of corticosterone between animals with tumors and without tumors at either 21-days (p=0.94, t-test, two-tailed) or at sacrifice (p=0.37, t-test, two-tailed).

[4] = Estrogen levels in human females during administration; assay type: in vivo; settings: administration periods of at least six months
[5] = molecular target: T1, glucocorticoid receptor (rbGR) (Oryctolagus cuniculus, UniProt P59667); experiment: Glucocorticoid receptor binding; parameters: species or system rabbit
T1 construct: cytosol containing PR or GR were prepared in TEGMD buffer; from tissue; host or cells: thymus of estradiol-primed immature rabbits (cytosol)
T1 sequence (P59667 1-772): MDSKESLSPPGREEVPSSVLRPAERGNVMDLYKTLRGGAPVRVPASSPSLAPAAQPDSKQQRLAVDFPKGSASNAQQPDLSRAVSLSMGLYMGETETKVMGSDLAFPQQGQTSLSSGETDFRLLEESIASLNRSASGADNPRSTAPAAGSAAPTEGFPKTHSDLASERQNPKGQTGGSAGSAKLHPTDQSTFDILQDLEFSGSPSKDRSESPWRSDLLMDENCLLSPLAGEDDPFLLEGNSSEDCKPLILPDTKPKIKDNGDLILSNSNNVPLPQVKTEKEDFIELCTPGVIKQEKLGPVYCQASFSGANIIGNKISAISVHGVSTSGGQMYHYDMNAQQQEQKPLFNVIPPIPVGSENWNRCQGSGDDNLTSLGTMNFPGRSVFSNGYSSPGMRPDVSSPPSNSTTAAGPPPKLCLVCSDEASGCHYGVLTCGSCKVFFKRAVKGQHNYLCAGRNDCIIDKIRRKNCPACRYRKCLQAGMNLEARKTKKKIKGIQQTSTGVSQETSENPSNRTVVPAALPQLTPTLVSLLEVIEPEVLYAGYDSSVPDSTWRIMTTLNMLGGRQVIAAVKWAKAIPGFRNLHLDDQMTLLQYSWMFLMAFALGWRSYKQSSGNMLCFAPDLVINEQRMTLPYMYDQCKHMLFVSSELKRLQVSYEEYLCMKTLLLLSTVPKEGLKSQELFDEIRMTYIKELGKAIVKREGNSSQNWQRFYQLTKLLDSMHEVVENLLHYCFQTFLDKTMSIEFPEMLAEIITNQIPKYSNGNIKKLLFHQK
Procedure: Certain antiprogestins were tested in receptor-binding assays for their ability to bind rabbit progesterone receptor (rbPR) and glucocorticoid receptor (rbGR). […] For PR binding, the cytosol was incubated with 6 nM 1,2-[^3H]progesterone (50.0 Ci/mmole) and competitors were added at concentrations from 2 to 100 nM. For binding to GR, the cytosol was incubated with 6 nM 6,7-[^3H]-dexamethasone (40 Ci/mmol) and test compounds were added at concentrations from 20 to 100 nM. After overnight incubation at 4° C., bound and unbound [^3H] steroids were separated by addition of dextran-coated charcoal and centrifugation at 2100×g for 15 min at 4
C. Supernatants containing the [3H]-steroid receptor complexes were decanted into vials containing 4 ml Optifluor (Packard Instrument Co.), vortexed, equilibrated in a liquid scintillation counter for 30 minutes and then counted for 2 minutes. […] The standards for the PR and GR assays were unlabeled progesterone and dexamethasone, respectively.

| SMILES | rabbit Biol. Act. [1] | toxicity by animal weight, treated vs. control (in words) [2] | effect on serum corticosterone (in words) [3] | estrogen levels in human females (in words) [4] | anti-glucocorticoid receptor activity / glucocorticoid receptor binding (in words) [5] |
| --- | --- | --- | --- | --- | --- |
| COCC(=O)[C@@]1(OC(C)=O)CC[C@H]2[C@@H]3CCC4=CC(=O)CCC4=C3[C@@H](c3ccc(N(C)C)cc3)C[C@@]21C [CDB-4124, 21-methoxy-17α-acetoxy-11β-(4 N,N-dimethylaminophenyl)-19-norpregna-4,9-diene-3,20-dione] | 3.60 | not toxic, even at a high dose level | no strong effect | maintain estrogen levels in the normal range | – |
| CC#C[C@]1(O)CC[C@H]2[C@@H]3CCC4=CC(=O)CCC4=C3[C@@H](c3ccc(N(C)C)cc3)C[C@@]21C [RU 486, mifepristone, reference compound] | – | – | – | – | moderately active in glucocorticoid receptor binding |
